Measured values: patent publication US20240335497A1, “PULSE PROTEIN-BASED COMPOSITION FOR ACTIVATING THE SYNTHESIS OF FGF19” (ROQUETTE FRERES, priority 2021, published 2024)

Tested on: FGF19
Test: Expression of FGF19 mRNA in HT29 cells by RT-qPCR
Format: cell-based, human
Details: 6 h; for increase of expression of the FGF19 gene compared to control (carrier=DMSO): Example 5, HT29 cells; for increase of expression of the FGF19 gene compared with control (carrier=DMSO): Example 6, HT29 cells
Source text: For cell cultures, the HT29 (ECACC 91072201), HT29-MTX and Caco-2 lines derived from a human colorectal adenocarcinoma are used, conventionally used as cell lines representative of human enterocytes. The cells are systematically cultured in Dulbecco's Modified Eagle Medium (DMEM): 4.5 g/L of glucose supplemented with 1% of sodium pyruvate, 1% of penicillin-streptomycin and 10% of decomposed fetal-bovine serum (FBS) (Eurobio, Les Ulis, France). For the 12-well and 96-well plate experiments, the HT29 cells were seeded with a density of 7.5×10^4 cells/cm^2 with a medium changed every 2 days and the cells were exposed to different experimental conditions 2 days after confluence with a depleted complete medium in FBS. For the 12-well plates (Costar®, Cambridge, MA), Caco-2 and HT29-MTX cells were seeded in a ratio of 1:1 with a density of 2.5×10^4 cells/cm^2. The cells were cultured for 14 days in a complete medium to allow differentiation. The medium was changed in the two compartments every two days until exposure to the complete medium was depleted in the FBS. The integrity of the cellular monolayer was evaluated by measuring the transepithelial electrical resistance (TEER) using a Millicell-ERS (Millipore Corp., Billerica, MA). The cell culture was sourced from Dutscher (Issy-les-Moulineaux, France), unless specified otherwise.
The various conditions of the carrier as PD were dissolved in PBS and the agonists were dissolved in DMSO. After exposure, the cell supernatants were stored at −80° C. for the measurements of the secretion of FGF19 proteins, and the cell monolayers were maintained at −80° C. until total extraction of the RNA.
The effect of this exposure is measured by quantifying the messenger RNA of the FGF19 using the following protocol: the expression of the target genes was evaluated by quantifying their mRNA level in the cells by RT-qPCR. The total RNA was isolated using the TRI-Reagent solution (Sigma Aldrich). First-strand complementary DNA was synthesized from 1 μg of total RNA using the TAKARA Prime ScriptMC RT reagent kit (TAKARA Bio, Saint-Germain-en-Laye, France). The qPCR tests were carried out using the SYBR® Premix Ex-Taq™ kit (TAKARA Bio) on Rotor-Gene™ 6000 (Corbet Research, Mortlake, Australia). The mRNA levels of the human TATA binding protein (TBP) were used to normalize the data.
[FIG. 1] summarizes the results obtained. The HT29 cells were exposed to the various PDs alone or in combination with an FXR agonist to determine their potential capacity to increase the expression of the FGF19 gene. […]
The capacity of the RQ3 and RQ7 digestates to increase the level of expression of the FGF19 mRNA and also the production and secretion of proteins was then evaluated. […]

## CC(C)c1onc(-c2c(Cl)cccc2Cl)c1COc1ccc(C=Cc2cccc(C(=O)O)c2)c(Cl)c1 [GW4064, 3-(2,6-Dichlorophenyl)-4-(3′-carboxy-2-chlorostilben-4-yl)oxymethyl-5-isopropylisoxazole]
GW4064 0.1 μM alone
  increase of expression of the FGF19 gene compared to control (carrier=DMSO): 2 times
  increase of expression of the FGF19 gene compared with control (carrier=DMSO): 2.3 times
GW4064 1 μM alone
  increase of expression of the FGF19 gene compared to control (carrier=DMSO): 6.2 times
  increase of expression of the FGF19 gene compared with control (carrier=DMSO): 6.6 times
